The record followed here is ChEMBL document CHEMBL4229437, “Polyamine-containing etoposide derivatives as poisons of human type II topoisomerases: Differential effects on topoisomerase IIα and IIβ” (Bioorg Med Chem Lett, 2018).

Assay [1] addresses DNA topoisomerase 2-alpha (Homo sapiens) (UniProt P11388). Description: Poison activity at recombinant human topoisomerase-2alpha expressed in Saccharomyces cerevisiae assessed as inhibition of DNA religation using single-stranded DNA at 25 uM incubated for 6 mins by agarose gel electrophoresis method.
The target of assay [2] is DNA topoisomerase 2-beta (Homo sapiens) (UniProt Q02880). Description: Inhibition of recombinant human topoisomerase-2beta expressed in Saccharomyces cerevisiae assessed as stabilization of DNA-enzyme cleavage complex at 25 uM incubated for 6 mins followed by incubation in drug-free buffer by agarose gel electrophoresis method.
Chain of DNA topoisomerase 2-beta (Homo sapiens) (Q02880 whole entry): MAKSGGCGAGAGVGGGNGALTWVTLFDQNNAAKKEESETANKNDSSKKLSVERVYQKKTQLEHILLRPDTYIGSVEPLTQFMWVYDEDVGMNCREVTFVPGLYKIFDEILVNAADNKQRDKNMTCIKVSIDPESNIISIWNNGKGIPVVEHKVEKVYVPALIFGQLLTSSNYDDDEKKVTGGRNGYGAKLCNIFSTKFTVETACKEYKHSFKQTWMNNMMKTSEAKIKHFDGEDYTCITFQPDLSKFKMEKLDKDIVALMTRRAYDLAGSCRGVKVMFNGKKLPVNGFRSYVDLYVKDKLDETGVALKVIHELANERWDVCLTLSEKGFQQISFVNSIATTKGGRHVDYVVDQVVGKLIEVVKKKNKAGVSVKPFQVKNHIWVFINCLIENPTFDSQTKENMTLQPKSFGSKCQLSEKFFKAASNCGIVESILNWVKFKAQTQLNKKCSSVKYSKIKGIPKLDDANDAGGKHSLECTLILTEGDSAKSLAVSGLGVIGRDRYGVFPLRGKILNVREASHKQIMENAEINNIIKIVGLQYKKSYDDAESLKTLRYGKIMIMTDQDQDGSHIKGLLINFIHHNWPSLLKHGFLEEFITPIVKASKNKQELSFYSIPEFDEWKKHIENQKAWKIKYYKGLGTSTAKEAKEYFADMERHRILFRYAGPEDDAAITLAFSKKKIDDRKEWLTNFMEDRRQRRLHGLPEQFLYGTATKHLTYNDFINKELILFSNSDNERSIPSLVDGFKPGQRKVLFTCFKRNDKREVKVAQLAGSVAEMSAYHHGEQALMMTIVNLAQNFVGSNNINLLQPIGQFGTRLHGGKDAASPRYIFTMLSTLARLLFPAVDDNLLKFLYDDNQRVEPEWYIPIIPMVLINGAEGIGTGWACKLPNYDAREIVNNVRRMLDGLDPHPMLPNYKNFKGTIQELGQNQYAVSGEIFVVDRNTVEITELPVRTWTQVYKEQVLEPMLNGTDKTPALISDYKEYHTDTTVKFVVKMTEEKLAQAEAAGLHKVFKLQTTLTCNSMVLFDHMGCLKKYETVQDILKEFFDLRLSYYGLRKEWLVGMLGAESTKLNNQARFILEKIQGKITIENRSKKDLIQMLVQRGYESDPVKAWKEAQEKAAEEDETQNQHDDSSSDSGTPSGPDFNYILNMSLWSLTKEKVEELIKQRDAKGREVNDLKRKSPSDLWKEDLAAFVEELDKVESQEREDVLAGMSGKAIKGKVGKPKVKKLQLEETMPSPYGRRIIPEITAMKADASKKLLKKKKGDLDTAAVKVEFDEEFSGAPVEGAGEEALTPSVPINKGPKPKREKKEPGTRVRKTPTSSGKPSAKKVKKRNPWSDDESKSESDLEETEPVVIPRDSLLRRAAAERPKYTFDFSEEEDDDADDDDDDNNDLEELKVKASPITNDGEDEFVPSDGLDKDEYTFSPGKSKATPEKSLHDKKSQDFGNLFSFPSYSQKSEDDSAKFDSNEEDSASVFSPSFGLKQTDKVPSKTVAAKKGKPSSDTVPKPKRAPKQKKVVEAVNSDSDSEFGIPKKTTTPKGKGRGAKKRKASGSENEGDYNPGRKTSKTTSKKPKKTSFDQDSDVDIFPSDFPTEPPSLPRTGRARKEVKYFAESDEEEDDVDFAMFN
The target in assay [3] is DNA topoisomerase 2-alpha (Homo sapiens) (UniProt P11388). Description: Inhibition of recombinant human topoisomerase-2alpha expressed in Saccharomyces cerevisiae assessed as increase in single-stranded DNA cleavage at 25 uM using supercoiled pBR322 DNA as substrate incubated for 6 mins measured after 30 mins by ethidium bromide staining based agarose gel electrophoresis method relative to etoposide.
Chain of DNA topoisomerase 2-alpha (Homo sapiens) (P11388 whole entry): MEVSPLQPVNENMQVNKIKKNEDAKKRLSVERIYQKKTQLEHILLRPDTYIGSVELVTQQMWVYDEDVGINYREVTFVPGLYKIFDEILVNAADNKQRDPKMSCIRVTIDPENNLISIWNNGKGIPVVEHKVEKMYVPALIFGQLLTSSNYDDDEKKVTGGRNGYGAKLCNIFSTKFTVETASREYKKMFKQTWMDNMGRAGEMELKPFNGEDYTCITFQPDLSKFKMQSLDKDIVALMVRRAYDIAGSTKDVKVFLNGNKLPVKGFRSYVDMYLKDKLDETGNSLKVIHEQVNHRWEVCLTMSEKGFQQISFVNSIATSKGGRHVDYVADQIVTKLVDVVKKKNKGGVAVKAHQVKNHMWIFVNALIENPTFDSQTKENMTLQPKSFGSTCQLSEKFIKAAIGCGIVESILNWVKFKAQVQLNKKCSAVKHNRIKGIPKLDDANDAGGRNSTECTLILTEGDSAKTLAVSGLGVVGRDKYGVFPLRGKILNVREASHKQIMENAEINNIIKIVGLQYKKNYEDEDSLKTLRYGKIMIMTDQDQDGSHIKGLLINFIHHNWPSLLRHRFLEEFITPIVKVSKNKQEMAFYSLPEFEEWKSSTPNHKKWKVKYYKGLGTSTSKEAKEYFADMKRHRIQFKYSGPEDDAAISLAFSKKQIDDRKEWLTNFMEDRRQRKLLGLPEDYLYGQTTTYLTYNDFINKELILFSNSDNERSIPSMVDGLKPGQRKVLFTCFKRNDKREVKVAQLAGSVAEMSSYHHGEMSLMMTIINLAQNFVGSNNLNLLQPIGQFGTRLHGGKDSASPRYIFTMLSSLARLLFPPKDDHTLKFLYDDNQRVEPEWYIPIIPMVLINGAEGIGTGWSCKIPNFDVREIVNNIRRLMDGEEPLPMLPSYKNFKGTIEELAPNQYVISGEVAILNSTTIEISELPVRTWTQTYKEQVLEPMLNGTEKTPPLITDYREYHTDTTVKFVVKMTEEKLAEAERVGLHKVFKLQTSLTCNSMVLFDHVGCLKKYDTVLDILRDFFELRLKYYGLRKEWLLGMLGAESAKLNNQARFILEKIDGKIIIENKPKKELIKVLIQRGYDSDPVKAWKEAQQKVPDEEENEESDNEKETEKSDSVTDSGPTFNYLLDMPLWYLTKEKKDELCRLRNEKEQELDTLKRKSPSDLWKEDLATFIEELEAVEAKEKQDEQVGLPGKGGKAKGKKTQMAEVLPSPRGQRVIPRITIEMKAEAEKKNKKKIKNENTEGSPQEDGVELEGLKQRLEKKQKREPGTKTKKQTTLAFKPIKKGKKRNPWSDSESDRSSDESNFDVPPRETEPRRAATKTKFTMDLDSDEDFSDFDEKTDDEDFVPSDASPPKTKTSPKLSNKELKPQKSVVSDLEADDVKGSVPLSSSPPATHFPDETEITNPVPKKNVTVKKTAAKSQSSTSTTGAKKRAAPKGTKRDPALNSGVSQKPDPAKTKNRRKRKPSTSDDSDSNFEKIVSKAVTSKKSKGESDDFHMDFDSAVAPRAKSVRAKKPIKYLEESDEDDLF

Assay [4] concerns the target DNA topoisomerase 2-beta (Homo sapiens) (UniProt Q02880). Nature of the assay: Poison activity at recombinant human topoisomerase-2beta expressed in Saccharomyces cerevisiae assessed as stabilization of DNA-enzyme cleavage complex by measuring concentration required to generate 10% double-stranded DNA breaks using supercoiled pBR322 DNA as substrate incubated for 6 mins measured after 30 mins by ethidium bromide staining based agarose gel electrophoresis method.

Assay [5] has the same target. Description: Inhibition of recombinant human topoisomerase-2beta expressed in Saccharomyces cerevisiae assessed as increase in total DNA cleavage at 25 uM using supercoiled pBR322 DNA as substrate incubated for 6 mins measured after 30 mins by ethidium bromide staining based agarose gel electrophoresis method relative to etoposide.
In assay [6] the target is DNA topoisomerase 2-alpha (Homo sapiens) (UniProt P11388). Description: Inhibition of recombinant human topoisomerase-2alpha expressed in Saccharomyces cerevisiae assessed as increase in total DNA cleavage at 25 uM using supercoiled pBR322 DNA as substrate incubated for 6 mins measured after 30 mins by ethidium bromide staining based agarose gel electrophoresis method relative to etoposide.

For assay [7] the target is unchanged. Nature of the assay: Inhibition of recombinant human topoisomerase-2alpha expressed in Saccharomyces cerevisiae assessed as increase in double-stranded DNA cleavage at 25 uM using supercoiled pBR322 DNA as substrate incubated for 6 mins measured after 30 mins by ethidium bromide staining based agarose gel electrophoresis method relative to etoposide.
Assay [8] has as its target DNA topoisomerase 2-beta (Homo sapiens) (UniProt Q02880). Nature of the assay: Poison activity at recombinant human topoisomerase-2beta expressed in Saccharomyces cerevisiae assessed as stabilization of DNA-enzyme cleavage complex at 25 uM using supercoiled pBR322 DNA as substrate incubated for 6 mins measured after 30 mins by ethidium bromide staining based agarose gel electrophoresis method.

Assay [9] has the same target. Nature of the assay: Inhibition of recombinant human topoisomerase-2beta expressed in Saccharomyces cerevisiae assessed as increase in single-stranded DNA cleavage at 25 uM using supercoiled pBR322 DNA as substrate incubated for 6 mins measured after 30 mins by ethidium bromide staining based agarose gel electrophoresis method relative to etoposide.
For assay [10] the target is unchanged. Nature of the assay: Inhibition of recombinant human topoisomerase-2beta expressed in Saccharomyces cerevisiae assessed as increase in double-stranded DNA cleavage at 25 uM using supercoiled pBR322 DNA as substrate incubated for 6 mins measured after 30 mins by ethidium bromide staining based agarose gel electrophoresis method relative to etoposide.
For assay [11] the target is unchanged. Description: Poison activity at recombinant human topoisomerase-2beta expressed in Saccharomyces cerevisiae assessed as inhibition of DNA religation using single-stranded DNA at 25 uM incubated for 6 mins by agarose gel electrophoresis method.
The target of assay [12] is DNA topoisomerase 2-alpha (Homo sapiens) (UniProt P11388). Nature of the assay: Poison activity at recombinant human topoisomerase-2alpha expressed in Saccharomyces cerevisiae assessed as stabilization of DNA-enzyme cleavage complex at 25 uM using supercoiled pBR322 DNA as substrate incubated for 6 mins measured after 30 mins by ethidium bromide staining based agarose gel electrophoresis method.

Assay [13] shares this target. Nature of the assay: Poison activity at recombinant human topoisomerase-2alpha expressed in Saccharomyces cerevisiae assessed as stabilization of DNA-enzyme cleavage complex by measuring concentration required to generate 10% double-stranded DNA breaks using supercoiled pBR322 DNA as substrate incubated for 6 mins measured after 30 mins by ethidium bromide staining based agarose gel electrophoresis method.

Assay [14] shares this target. Nature of the assay: Inhibition of recombinant human topoisomerase-2alpha expressed in Saccharomyces cerevisiae assessed as stabilization of DNA-enzyme cleavage complex at 25 uM incubated for […] followed by incubation in drug-free buffer by agarose gel electrophoresis method.
Assay [15] deals with DNA topoisomerase 2-beta (Homo sapiens) (UniProt Q02880). Nature of the assay: Inhibition of recombinant human topoisomerase-2beta expressed in Saccharomyces cerevisiae assessed as stabilization of DNA-enzyme cleavage complex at 50 uM incubated for 6 mins followed by incubation in drug-free buffer by agarose gel electrophoresis method.
In assay [16] the target is DNA topoisomerase 2-alpha (Homo sapiens) (UniProt P11388). The note with it: 100 uM.
Description: Inhibition of recombinant human topoisomerase-2alpha expressed in Saccharomyces cerevisiae assessed as stabilization of DNA-enzyme cleavage complex at 100 uM incubated for 10 mins followed by incubation in drug-free buffer by agarose gel electrophoresis method
Assay [17] has the same target. The note with it: 100 uM. The source holds these as a separate data set.
Description: Poison activity at recombinant human topoisomerase-2alpha expressed in Saccharomyces cerevisiae assessed as inhibition of DNA religation using single-stranded DNA at 100 uM incubated for 6 mins by agarose gel electrophoresis method

The source made the active and inactive calls. No cut-off for these calls is given here.

`CNCCCNCCCCNCCCNCC(=O)N[C@@H]1c2cc3c(cc2[C@@H](c2cc(OC)c(O)c(OC)c2)[C@H]2C(=O)OC[C@@H]21)OCO3`: the inhibition result in assay [1], in [2], in [11] and in [14] was “Active” in each case. In addition, the fold change (FC) in [3] was found to be 1.37; in assay [5], 6.51; in assay [6], 1.66; in assay [7], 2.16; in assay [9] it was 2.61; in [10], 8.36. The Activity in assay [4] worked out at 7.5 µM; in [13], 13.2 µM. The result in [8] and in assay [12] was inactive.

For `COc1cc([C@@H]2c3cc4c(cc3[C@@H](NC(=O)CNCCCNCCCNCCCN)[C@H]3COC(=O)[C@H]23)OCO4)cc(OC)c1O`, the inhibition entry in assay [1], in assay [2], in [11] and in assay [14] was “Active” in each case. Also, the fold change (FC) in [3] came to 1.17; in assay [5], 6.03; in assay [6] it was 1.52; in assay [7], 2.13; in [9] it was 2.21; in [10], 7.85. Moreover, the Activity is 8.1 µM in assay [4] and 12.2 µM in assay [13]. In addition, the result in assay [8] and in [12] was inactive.

On to `COc1cc([C@@H]2c3cc4c(cc3[C@@H](NC(=O)CNCCCNCCNCCCN)[C@H]3COC(=O)[C@H]23)OCO4)cc(OC)c1O`, for which the inhibition result in assay [1], in assay [2], in assay [11] and in assay [14] was “Active” in each case. For the same compound, the fold change (FC) came out at 1.06 in assay [3]; 4.54 in assay [5]; 1.38 in assay [6]; 1.93 in assay [7]; 4.27 in [9]; 4.66 in [10]. In addition, the results for the Activity in assay [4] and in assay [13] were 25.3 µM and 20.5 µM, respectively. Moreover, the result in [8] and in assay [12] was inactive.

As for `COc1cc([C@@H]2c3cc4c(cc3[C@@H](NC(=O)CNCCCNCCCCNCCCN)[C@H]3COC(=O)[C@H]23)OCO4)cc(OC)c1O`, the inhibition entry in assay [1], in assay [2], in [11] and in assay [14] was “Active” each time. The fold change (FC) in assay [3] came to 0.92; in assay [5], 7.85; in assay [6], 1.49; in assay [7], 2.48; in assay [9], 2.68; in [10] it was 10.3. Further, the Activity in [4] turned out to be 4.3 µM; in assay [13], 4.8 µM. Further, the outcome in assay [8] and in [12] was inactive.

Regarding `COc1cc([C@@H]2c3cc4c(cc3[C@@H](NC(=O)CNCCCOCCCCOCCCN)[C@H]3COC(=O)[C@H]23)OCO4)cc(OC)c1O`, the inhibition entry in assay [1], in [2], in assay [11] and in assay [14] was “Active” each time. In addition, the fold change (FC) in assay [3] stood at 0.87; in assay [5] it was 3.13; in assay [6], 0.88; in assay [7] it was 0.9; in [9] it was 3.63; in assay [10], 2.9. Moreover, the results for the Activity in assay [4] and in [13] were 49.9 µM and 98.9 µM, respectively. The outcome in assay [8] and in [12] was inactive.

Turning to `COc1cc([C@@H]2c3cc4c(cc3[C@@H](NC(=O)CNCCCNCCCCN)[C@H]3COC(=O)[C@H]23)OCO4)cc(OC)c1O`, the inhibition entry in [1], in assay [2], in [11] and in assay [14] was “Active” each time. The fold change (FC) in assay [3] is 1.14; in [5], 6.8; in assay [6] it was 1.28; in [7] it was 1.52; in [9], 4.92; in [10], 7.69. The Activity in assay [4] was 11 µM; in assay [13], 54.1 µM. The result in assay [8] and in assay [12] was inactive.

As to `COc1cc([C@@H]2c3cc4c(cc3[C@@H](O[C@@H]3O[C@@H]5CO[C@@H](C)O[C@H]5[C@H](O)[C@H]3O)[C@H]3COC(=O)[C@H]23)OCO4)cc(OC)c1O`, the Activity in assay [4] and in assay [13] was greater than 100 µM each time. Further, the inhibition entry in assay [15], in assay [11], in assay [16] and in assay [17] was “Active” throughout.
